Measurements published in patent publication US20260133182A1, “METHOD OF DETERMINING FUSOGENIC POTENTIAL OF SPERM AND USE THEREOF IN ASSISTED FERTILIZATION AND DRUG SCREENING” (Technion Research & Development Foundation Limited, priority 2023, published 2026).

Test system: BHK cells expressing JUNO co-incubated with capacitated mouse sperm
Test: Sperm-to-BHK fusion and multinucleation
Type: cell-based, hamster
Conditions: JUNO-transfected BHK cells + mouse sperm
Description: In this study, the present inventors used BHK cells (Cat #CCL-10; ATCC, RRID: CVCL_1915) which were grown and maintained in DMEM containing 10% FBS. Cells were cultured at 37° C. in 5% CO2. Plasmids were transfected into cells using 2 μl jetPRIME (PolyPlus-transfection) per μg of DNA in 100 μl of reaction buffer for every ml of medium.
Sperm were recovered by incising the cauda epididymis, obtained from adult male mice, in 300 μl of mHTF medium (Kito et al. 2004) supplemented with 4 mg/ml of BSA. The sperm were diluted in fresh medium to a concentration of 5×10^6 cells/ml and incubated for 90 min at 37° C. and 5% CO2 to induce capacitation.
BHK cells were grown on 24-well glass bottom tissue-culture plates. 24 h after plating, cells were transfected with 0.25 μg pcDNA 3.1 -EGFP-MBD-nls plasmids and 0.5 μg of either pCI::H2B-RFP or pCI::JUNO::H2B-RFP. […] Multinucleation percentage was determined as the ratio between the number of nuclei in multinucleated cells (NuM) and the total number of nuclei fluorescent cells (NuF), as follows: % of multinucleation=(NuM/NuF)×100. 500 nuclei (NuF) were counted in each independent repetition (experimental point). In some cases, the number of sperm fused was determined by evaluating the transfer of EGFP-MBD-nls signal from the BHK cell to the sperm nuclei (number of fused sperm/500 BHK cells). […]

SMILES	multinucleation (% of multinucleation) (20 μM FdUdr)	levels of multinucleation (% of multinucleation) (4 h, 200 μg/ml cycloheximide vs control)
O=c1[nH]c(=O)n([C@H]2C[C@H](O)[C@@H](CO)O2)cc1F [FdUdr, 5-fluoro-2′-deoxyuridine]	does not inhibit	–
C[C@@H]1C[C@@H]([C@H](O)CC2CC(=O)NC(=O)C2)C(=O)[C@@H](C)C1 [cycloheximide]	–	no differences
